These results are taken from patent US10640495B2, “Heterocycle derivatives having TrkA inhibitory activity” (Shionogi & Co., Ltd., priority 2015, dated 2020).

human TrkA, sequence (P04629 440-796): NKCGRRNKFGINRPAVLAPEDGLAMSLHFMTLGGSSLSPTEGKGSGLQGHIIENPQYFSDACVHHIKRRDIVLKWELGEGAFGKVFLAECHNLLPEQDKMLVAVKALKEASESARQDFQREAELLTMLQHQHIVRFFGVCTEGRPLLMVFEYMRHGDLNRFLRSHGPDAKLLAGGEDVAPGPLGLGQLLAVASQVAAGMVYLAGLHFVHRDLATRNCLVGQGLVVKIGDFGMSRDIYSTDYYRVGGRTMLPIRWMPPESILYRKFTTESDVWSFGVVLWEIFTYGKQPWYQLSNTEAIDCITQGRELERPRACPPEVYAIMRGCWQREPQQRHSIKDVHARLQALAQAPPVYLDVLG

The first test has as its target human TrkA (Homo sapiens (Human), UniProt P04629). The experiment in a line: Human TrkA inhibition assay (Test Example 2). Particulars: Table 152, human TrkA inhibition; read-out: IC50_nM. The class given is biochemical. The method, then:
Seven point five μL per well of human TrkA (PV3144, Lifetechnologies, final concentration: 1 nmol/L) suspended in the assay buffer (100 mmol/L 4-(2-hydroxyethyl)-1-piperazineethanesulfonic acid (HEPES), 10 mmol/L magnecium chloride, 0.003 vol % Brij-35, 0.004 vol % Tween20 and 1 mmol/L dithiothreitol (DTT)) was applied in a 384 well plate and the plate was pre-incubated for 15 min at room temperature with 0.4 μL of each compound (final concentration: 200 μmol/L-1 pmol/L) dissolved in DMSO. Then, fluorescent substrate (FL-peptide 27, 760424, PerkinElmer, final concentration: 1.5 μmol/L) and ATP (final concentration 500 μmol/L) dissolved in the assay buffer was added in each well. After the incubation of 120 min at 37° C., fifteen μL of termination buffer (100 mmol/L HEPES, 40 mmol/L ethylenediaminetetraacetic acid (EDTA), 10 mmol/L magnecium chloride, 0.003 vol % Brij-35, 0.004 vol % Tween20, 1 mmol/L DTT and 0.16 vol % Coating Reagent 3) was added in each well to stop the enzyme reaction. Fluorescent intensities (FI) of phosphorylated and non-phosphorylated fluorescent substrates were measured by LabChip EZReader II (Caliper LifeSciences, Inc.), and conversion ratio (CR) was calculated by the following formula-1. The CR in the well applied with DMSO alone was used as a negative control and the CR in the well without applying TrkA was used as a positive control. The inhibitory effect of each compound on TrkA phosphorylation was calculated by the following formula-2. CR (%)=(FI of phosphorylated substrate/(FI of phosphorylated substrate+FI of non-phosphorylated substrate))×100 (Formula-1) Phosphorylation inhibition (%)=(1−(CR with compound treatment−CR of positive control)/(CR of negative control−CR of positive control))×100 (Formula-2)
IC50 values (nmol/L) were determined by the logistic regression using the inhibition data in 10 points of 3-fold dilution series at a compound concentration range of 20 nmol/L to 1 pmol/L, or 10 points of 3-fold dilution series at the range of 2 μmol/L to 0.1 nmol/L, or 10 points of 3-fold dilution series at the range of 200 μmol/L to 10 nmol/L, or 15 points of 3-fold dilution series at the range of 200 μmol/L to 0.04 nmol/L.
The evaluation results of the compounds in the present invention are indicated as follows. IC50 values of 0 to 100 nM, 100 to 1000 nM and over 1000 nM were shown as “A”, “B” and “C”, respectively.
As to `COCCN1C[C@@H](NC(=O)Nc2c(C)c(C3=CCN(C(C)=O)CC3)nn2-c2ccccc2)[C@H](c2ccnc(F)c2)O1` (racemic) [Compound I-42], the IC50 is under 100 nM. The same measure, in the same setting: next, `COCCN1C[C@@H](NC(=O)Nc2c(C)c(-c3ccc(=O)[nH]c3)nn2-c2ccccc2)[C@H](c2ccc(F)c(F)c2)O1` (racemic) [Compound I-32]: under 100 nM.

The same test, now with this note: Table 153, human TrkA inhibition; read-out: IC50.
As to `CCOc1ncc(-c2nn(-c3ccccc3)c(NC(=O)N[C@@H]3CN(CCOC)O[C@H]3c3cnc(F)c(F)c3)c2C)cn1` (racemic) [Compound I-68], the IC50 is under 100 nM. Consider `COCCN1C[C@@H](NC(=O)Nc2c(C)c(-c3cnc(C(=O)NC4CCOCC4)c(C)c3)nn2-c2ccccc2)[C@H](c2ccnc(F)c2)O1` (racemic) [Compound I-171], for which the IC50 was under 100 nM. On the same count and under the same terms, as for `COCCN1C[C@@H](NC(=O)Nc2c(C)c(-c3cnc(NC4CC4)nc3)nn2-c2ccccc2)[C@H](c2ccnc(F)c2)O1` (racemic) [Compound I-131], the figure is under 100 nM.

`COCCN1C[C@@H](NC(=O)Nc2c(C)c(-c3ccn4nc(C)nc4c3)nn2-c2ccccc2)[C@H](c2ccnc(F)c2)O1` (racemic) [Compound I-156]: the IC50 was under 100 nM.

The same test, now with this note: Table 154, human TrkA inhibition; read-out: IC50.
With `COCC[C@@H]1C[C@@H](NC(=O)Nc2c(C)c(-c3cnc(N4CC(O)C4)nc3)nn2-c2ccccc2)[C@H](c2ccc(F)c(F)c2)O1` (racemic) [Compound I-242], the IC50 is under 100 nM. As to `COCCN1C[C@@H](NC(=O)Nc2c(C)c(-c3cnc4c(c3)nc(C#N)n4C)nn2-c2ccccc2)[C@H](c2ccnc(F)c2)O1` (racemic) [Compound I-220], the IC50 was under 100 nM.

Turning to `COCCN1C[C@@H](NC(=O)Nc2c(C)c(-c3cnc(C)s3)nn2-c2ccccc2)[C@H](c2ccnc(F)c2)O1` (racemic) [Compound I-287], the IC50 is under 100 nM. Still for that read-out and setting: next, `COCCN1C[C@@H](NC(=O)Nc2c(C)c(-c3ccc4c(c3)CS(=O)(=O)N4C)nn2-c2ccccc2)[C@H](c2ccnc(F)c2)O1` (racemic) [Compound I-262]: under 100 nM; `COCCN1C[C@@H](NC(=O)Nc2c(C)c(-c3cnc4c(c3)nc(C(F)(F)F)n4C)nn2-c2ccccc2)[C@H](c2ccnc(F)c2)O1` (racemic) [Compound I-226]: under 100 nM; `COCCN1C[C@@H](NC(=O)Nc2c(C)c(-c3cnc(C(=O)NC4CC4)c(F)c3)nn2-c2ccccc2)[C@H](c2ccnc(F)c2)O1` (racemic) [Compound I-257]: under 100 nM.

Staying with this test, now noted: Table 155, human TrkA inhibition; read-out: IC50.
`COCCN1C[C@@H](NC(=O)Nc2c(C)c(-c3cccnc3)nn2-c2ccccc2)[C@H](c2ccc(F)c(F)c2)O1` [Compound I-449]: the IC50 is under 100 nM.

On to `COCCN1C[C@@H](NC(=O)Nc2c(C)c(-c3cnc(N4C[C@H]5COC[C@@H](C4)N5)nc3)nn2-c2ccccc2)[C@H](c2ccnc(F)c2)O1` (racemic) [Compound I-421], for which the IC50 was under 100 nM.

Consider `CNC(=O)c1ccc(-c2nn(-c3ccccc3)c(NC(=O)N[C@@H]3CN(CCOC)O[C@H]3c3ccnc(F)c3)c2C)cn1` (racemic) [Compound I-452], for which the IC50 is under 100 nM. Consider `COCCN1C[C@@H](NC(=O)Nc2c(C)c(OCc3cnn(C)c3)nn2-c2ccccc2)[C@H](c2ccnc(F)c2)O1` (racemic) [Compound I-472], for which the IC50 is under 100 nM. Regarding `COCCN1C[C@@H](NC(=O)Nc2c(C)c(-c3cnc(OC)c(F)c3)nn2-c2ccccc2)[C@H](c2ccnc(F)c2)O1` (racemic) [Compound I-367], the IC50 is under 100 nM. For `COCCN1C[C@@H](NC(=O)Nc2c(C)c(-c3cnc(OC(C)C)nc3)nn2-c2ccccc2)[C@H](c2ccnc(F)c2)O1` (racemic) [Compound I-477], the IC50 was under 100 nM. Still for that read-out and setting: next, `COCCN1C[C@@H](NC(=O)Nc2c(C)c(-c3cnc4c(c3)c(C(=O)NC3CCN(C)CC3)nn4C)nn2-c2ccccc2)[C@H](c2ccnc(F)c2)O1` (racemic) [Compound I-376]: under 100 nM; `COCCN1C[C@@H](NC(=O)Nc2c(C)c(-c3ccc(N4C[C@H]5COC[C@@H](C4)N5C(=O)OC(C)(C)C)nc3)nn2-c2ccccc2)[C@H](c2ccnc(F)c2)O1` (racemic) [Compound I-393]: under 100 nM. Same read-out and setting: next, `COCCN1C[C@@H](NC(=O)Nc2c(C)c(C(=O)NCC(C)(C)O)nn2-c2ccccc2)[C@H](c2ccnc(F)c2)O1` (racemic) [Compound I-385]: under 100 nM; `COCCN1C[C@@H](NC(=O)Nc2c(C)c(-c3ccc4nccn4c3)nn2-c2ccccc2)[C@H](c2ccc(F)c(F)c2)O1` [Compound I-460]: under 100 nM. With `COCCN1C[C@@H](NC(=O)Nc2c(C)c(-c3cnc4c(c3)ncn4C3CCN(C)CC3)nn2-c2ccccc2)[C@H](c2ccnc(F)c2)O1` (racemic) [Compound I-426], the IC50 was under 100 nM.

The same test, now with this note: Table 156, human TrkA inhibition; read-out: IC50.
Take `CCN1C[C@@H](NC(=O)Nc2c(C)c(OCC3CCN(C)CC3)nn2-c2ccccc2)[C@H](c2ccc(F)cc2)O1` (racemic) [Compound I-569]: the IC50 was under 100 nM. With `CCN1C[C@@H](NC(=O)Nc2c(C)c(OCC3CCNCC3)nn2-c2ccccc2)[C@H](c2ccc(F)cc2)O1` (racemic) [Compound I-562], the IC50 is under 100 nM.

Regarding `CCN1C[C@@H](NC(=O)Nc2c(C)c(-c3cnc(N4CCN(C)CC4)nc3)nn2-c2ccccc2)[C@H](c2ccc(F)c(F)c2)O1` (racemic) [Compound I-540], the IC50 is under 100 nM. On the same count and under the same terms, next, `CC(=O)N1CCC(COc2nn(-c3ccccc3)c(NC(=O)N[C@@H]3CN(CC(F)F)O[C@H]3c3ccc(F)c(F)c3)c2C)CC1` (racemic) [Compound I-565]: under 100 nM; `CCN1C[C@@H](NC(=O)Nc2c(C)c(-c3ccn(C)c(=O)c3)nn2-c2ccccc2)[C@H](c2ccc(F)c(F)c2)O1` (racemic) [Compound I-543]: under 100 nM.

Still in this test, the particulars now being: Table 157, human TrkA inhibition; read-out: IC50.
Take `COc1ncc(-c2nn(-c3ccccc3)c(NC(=O)N[C@@H]3CN(CCCO)O[C@H]3c3ccc(F)c(F)c3)c2C)cn1` (racemic) [Compound I-678]: the IC50 is 100 to 1000 nM. As for `COCCN1C[C@@H](NC(=O)Nc2c(C)c(-c3cnc4c(c3)OCO4)nn2-c2ccccc2)[C@H](c2ccnc(F)c2)O1` (racemic) [Compound I-606], the IC50 was under 100 nM. In the case of `COCCN1C[C@@H](NC(=O)Nc2c(C)c(-c3cnc(N4C[C@@H]5C[C@H]4CO5)nc3)nn2-c2ccccc2)[C@H](c2ccnc(F)c2)O1` [Compound I-591], the IC50 is under 100 nM.

On to `CCN1C[C@@H](NC(=O)Nc2c(C)c(OCC(=O)N3CCN(C)CC3)nn2-c2ccccc2)[C@H](c2ccc(F)c(F)c2)O1` (racemic) [Compound I-649], for which the IC50 was under 100 nM.

Staying with this test, now noted: human TrkA 1 nmol/L, ATP 500 μmol/L, 120 min at 37° C.; read-out: IC50 values (TrkA phosphorylation inhibition).
For `COCCN1C[C@@H](NC(=O)Nc2c(C)c(-c3ccc(N4CCN(C)CC4)nc3)nn2-c2ccccc2)[C@H](c2ccnc(F)c2)O1` (racemic) [Compound I-392], the IC50 came out at 6.8 nM. Same read-out and setting: next, `COCC[C@@H]1C[C@@H](NC(=O)Nc2c(C)c(-c3cnc(OC)nc3)nn2-c2ccccc2)[C@H](c2ccnc(F)c2)O1` [Compound I-273]: 4.7 nM; `COCC[C@@H]1C[C@@H](NC(=O)Nc2c(C)c(-c3cnc4c(c3)CC(=O)N4C)nn2-c2ccccc2)[C@H](c2ccnc(F)c2)O1` [Compound I-329]: 1.7 nM; `CCN1CCC(NC(=O)c2ccc(-c3nn(-c4ccccc4)c(NC(=O)N[C@@H]4CN(CCOC)O[C@H]4c4ccc(F)c(F)c4)c3C)cc2)CC1` (racemic) [Compound I-36]: 1.4 nM.
